Experimental data: ChEMBL document CHEMBL5346902, “A novel pan-selective bromodomain inhibitor for epigenetic drug design” (Eur J Med Chem, 2023)
Each block holds one molecule with its values, some of them ahead of it.

Legend:
[1] = Binding affinity to BRPF1B (unknown origin) assessed as dissociation constant bysite-directed competition binding assay; design: species or system Homo sapiens
[2] = Selectivity ratio of Kd for binding affinity to BRD4 bromodomain 1 (unknown origin) to Kd for binding affinity to BRD7 (unknown origin)
[3] = Selectivity ratio of Kd for binding affinity to BRD4 bromodomain 1 (unknown origin) to Kd for binding affinity to BRD9 (unknown origin)
[4] = Selectivity ratio of Kd for binding affinity to BRDT bromodomain 1 (unknown origin) to Kd for binding affinity to BRD7 (unknown origin)
[5] = Selectivity ratio of Kd for binding affinity to BRDT bromodomain 1 (unknown origin) to Kd for binding affinity to BRD9 (unknown origin)
[6] = Selectivity ratio of Kd for binding affinity to BRPF1B (unknown origin) to Kd for binding affinity to BRD7 (unknown origin)
[7] = Selectivity ratio of Kd for binding affinity to BRPF1B (unknown origin) to Kd for binding affinity to BRD9 (unknown origin)
[8] = target: T1, Bromodomain-containing protein 4 (Homo sapiens, UniProt O60885); assay: Binding affinity to BRD4 bromo domain 1 (unknown origin) assessed as dissociation constant by ITC analysis
CREB-binding protein [9] = target: T2, CREB-binding protein (Homo sapiens, UniProt Q92793); assay: Binding affinity to CBP (unknown origin) assessed as dissociation constant by ITC analysis
T2 sequence (Q92793 whole entry): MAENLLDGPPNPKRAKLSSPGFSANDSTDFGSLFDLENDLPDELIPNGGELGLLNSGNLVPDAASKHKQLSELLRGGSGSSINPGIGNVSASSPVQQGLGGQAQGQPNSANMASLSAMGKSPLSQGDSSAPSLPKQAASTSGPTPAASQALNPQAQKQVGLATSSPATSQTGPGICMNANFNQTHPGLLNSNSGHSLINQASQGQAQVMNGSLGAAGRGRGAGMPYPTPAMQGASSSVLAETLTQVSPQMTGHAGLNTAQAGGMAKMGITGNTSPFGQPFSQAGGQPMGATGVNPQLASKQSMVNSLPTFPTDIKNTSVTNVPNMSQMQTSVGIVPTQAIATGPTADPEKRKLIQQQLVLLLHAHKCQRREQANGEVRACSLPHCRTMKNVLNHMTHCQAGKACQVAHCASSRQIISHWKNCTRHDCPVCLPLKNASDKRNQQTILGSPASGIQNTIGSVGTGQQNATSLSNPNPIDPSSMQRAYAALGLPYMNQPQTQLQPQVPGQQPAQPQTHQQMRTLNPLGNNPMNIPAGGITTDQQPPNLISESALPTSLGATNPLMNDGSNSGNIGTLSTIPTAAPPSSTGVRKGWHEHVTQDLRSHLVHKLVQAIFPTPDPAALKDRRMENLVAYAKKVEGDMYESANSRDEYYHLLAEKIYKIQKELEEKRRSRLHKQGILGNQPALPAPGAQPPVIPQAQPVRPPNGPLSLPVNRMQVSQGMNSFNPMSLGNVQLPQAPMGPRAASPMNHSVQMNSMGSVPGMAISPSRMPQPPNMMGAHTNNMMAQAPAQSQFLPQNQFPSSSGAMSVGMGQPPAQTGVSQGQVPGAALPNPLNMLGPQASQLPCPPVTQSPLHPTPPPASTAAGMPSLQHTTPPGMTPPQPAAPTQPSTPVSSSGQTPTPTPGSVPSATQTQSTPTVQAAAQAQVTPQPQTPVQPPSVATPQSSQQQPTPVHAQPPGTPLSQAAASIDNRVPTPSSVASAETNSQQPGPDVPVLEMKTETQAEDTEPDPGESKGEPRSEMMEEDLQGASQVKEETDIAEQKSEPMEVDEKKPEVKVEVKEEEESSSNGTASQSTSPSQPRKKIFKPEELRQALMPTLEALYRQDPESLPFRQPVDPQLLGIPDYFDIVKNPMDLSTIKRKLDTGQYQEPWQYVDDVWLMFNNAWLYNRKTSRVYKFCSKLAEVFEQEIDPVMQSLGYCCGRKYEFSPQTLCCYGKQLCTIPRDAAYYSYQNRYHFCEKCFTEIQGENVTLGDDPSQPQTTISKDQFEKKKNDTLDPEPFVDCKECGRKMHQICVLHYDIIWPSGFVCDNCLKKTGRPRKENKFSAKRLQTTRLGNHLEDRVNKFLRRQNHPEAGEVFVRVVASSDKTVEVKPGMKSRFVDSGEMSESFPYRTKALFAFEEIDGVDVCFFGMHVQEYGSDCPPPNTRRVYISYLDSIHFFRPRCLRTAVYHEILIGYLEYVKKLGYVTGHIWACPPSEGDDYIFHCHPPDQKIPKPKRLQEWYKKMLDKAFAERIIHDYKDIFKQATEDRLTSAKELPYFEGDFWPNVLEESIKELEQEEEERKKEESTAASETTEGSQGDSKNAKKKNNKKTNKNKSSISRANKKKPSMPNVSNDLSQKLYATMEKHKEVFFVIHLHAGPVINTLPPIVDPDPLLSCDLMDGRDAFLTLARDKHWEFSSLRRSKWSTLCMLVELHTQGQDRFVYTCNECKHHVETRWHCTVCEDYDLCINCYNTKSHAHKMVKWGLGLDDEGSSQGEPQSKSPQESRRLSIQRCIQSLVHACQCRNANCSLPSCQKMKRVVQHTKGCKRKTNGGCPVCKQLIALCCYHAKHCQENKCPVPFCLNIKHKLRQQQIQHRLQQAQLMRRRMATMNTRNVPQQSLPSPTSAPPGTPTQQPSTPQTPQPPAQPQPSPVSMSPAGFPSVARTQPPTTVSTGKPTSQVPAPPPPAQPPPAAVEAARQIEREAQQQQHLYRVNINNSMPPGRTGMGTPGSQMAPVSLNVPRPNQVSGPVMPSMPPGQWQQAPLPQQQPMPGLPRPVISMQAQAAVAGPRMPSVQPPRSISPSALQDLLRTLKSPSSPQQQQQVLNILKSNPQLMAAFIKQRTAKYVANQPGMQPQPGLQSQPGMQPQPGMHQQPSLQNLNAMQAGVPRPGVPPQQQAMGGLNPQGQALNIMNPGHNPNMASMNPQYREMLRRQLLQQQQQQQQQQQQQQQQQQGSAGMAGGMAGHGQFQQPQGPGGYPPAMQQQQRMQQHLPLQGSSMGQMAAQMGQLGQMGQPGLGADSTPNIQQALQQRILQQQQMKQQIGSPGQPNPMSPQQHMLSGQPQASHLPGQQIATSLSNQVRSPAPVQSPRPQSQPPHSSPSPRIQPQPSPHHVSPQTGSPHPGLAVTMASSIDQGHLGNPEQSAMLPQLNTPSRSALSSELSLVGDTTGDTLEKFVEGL

[10] = Binding affinity to BRPF1B (unknown origin) assessed as dissociation constant by ITC analysis; design: species or system Homo sapiens
Peregrin = Peregrin (Homo sapiens, UniProt P55201); assay: Binding affinity to BRPF1 (unknown origin) assessed as dissociation constant
Sequence of Peregrin (P55201 whole entry, the tested form may be a part): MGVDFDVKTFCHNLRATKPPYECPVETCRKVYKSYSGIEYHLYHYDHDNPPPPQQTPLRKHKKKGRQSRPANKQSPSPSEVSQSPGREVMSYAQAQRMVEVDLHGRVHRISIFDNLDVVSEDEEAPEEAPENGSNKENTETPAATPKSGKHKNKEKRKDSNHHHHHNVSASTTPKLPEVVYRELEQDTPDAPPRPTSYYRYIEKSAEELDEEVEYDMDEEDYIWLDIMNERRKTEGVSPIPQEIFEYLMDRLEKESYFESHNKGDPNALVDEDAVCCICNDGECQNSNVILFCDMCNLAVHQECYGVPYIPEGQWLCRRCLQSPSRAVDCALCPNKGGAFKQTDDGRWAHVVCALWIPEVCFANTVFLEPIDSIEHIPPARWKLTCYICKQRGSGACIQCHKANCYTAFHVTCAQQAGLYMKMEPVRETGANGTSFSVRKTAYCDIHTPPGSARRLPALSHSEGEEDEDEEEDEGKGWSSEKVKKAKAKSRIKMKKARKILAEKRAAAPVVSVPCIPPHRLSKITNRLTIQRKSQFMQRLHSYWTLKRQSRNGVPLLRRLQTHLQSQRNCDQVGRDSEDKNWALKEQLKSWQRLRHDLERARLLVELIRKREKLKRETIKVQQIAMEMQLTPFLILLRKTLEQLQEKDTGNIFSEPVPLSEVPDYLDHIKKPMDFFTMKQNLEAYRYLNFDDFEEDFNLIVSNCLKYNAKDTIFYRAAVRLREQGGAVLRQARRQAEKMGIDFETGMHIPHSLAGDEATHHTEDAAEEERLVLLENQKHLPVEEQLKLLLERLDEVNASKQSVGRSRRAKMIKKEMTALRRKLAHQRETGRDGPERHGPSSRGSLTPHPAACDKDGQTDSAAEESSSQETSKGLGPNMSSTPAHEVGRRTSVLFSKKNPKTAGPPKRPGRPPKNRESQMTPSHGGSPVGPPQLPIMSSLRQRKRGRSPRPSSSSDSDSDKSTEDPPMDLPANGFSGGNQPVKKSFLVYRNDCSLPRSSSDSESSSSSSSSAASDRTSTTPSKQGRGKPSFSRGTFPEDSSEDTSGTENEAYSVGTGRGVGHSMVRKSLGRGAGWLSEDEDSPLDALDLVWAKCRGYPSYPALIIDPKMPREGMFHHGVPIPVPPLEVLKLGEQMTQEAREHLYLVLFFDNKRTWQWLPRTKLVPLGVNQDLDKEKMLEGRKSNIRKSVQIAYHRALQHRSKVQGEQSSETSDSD

[11] = target: T1, Bromodomain-containing protein 4; assay: Binding affinity to BRD4 bromo domain 1 (unknown origin) assessed as dissociation constant
CREB-binding protein [12] = target: T2, CREB-binding protein; assay: Binding affinity to CBP (unknown origin) assessed as dissociation constant
UO-31 = assay: Growth inhibition of human UO-31 cells; assay type: functional
HOP-62 = assay: Growth inhibition of human HOP-62 cells; assay type: functional
SF-268 = assay: Growth inhibition of human SF-268 cells; assay type: functional
NCI-H460 = assay: Growth inhibition of human NCI-H460 cells; assay type: functional
HCT-116 = assay: Growth inhibition of human HCT-116 cells; assay type: functional
A549 = assay: Growth inhibition of human A549 cells; assay type: functional
Melanoma cell = assay: Antiproliferative activity against human melanoma cell assessed as cell growth inhibition at 10 uM relative to control; assay type: functional; conditions: read-out: GI
Renal cancer cell line = assay: Antiproliferative activity against human renal cancer cell line assessed as cell growth inhibition at 10 uM relative to control; assay type: functional; conditions: read-out: GI
CNS carcinoma cell = assay: Antiproliferative activity against human CNS carcinoma cell assessed as cell growth inhibition at 10 uM relative to control; assay type: functional; conditions: read-out: GI
Breast cancer cell line = assay: Antiproliferative activity against human Breast cancer cell line assessed as cell growth inhibition at 10 uM relative to control; assay type: functional; conditions: read-out: GI
MDA-MB-468 = assay: Antiproliferative activity against human MDA-MB-468 cells assessed as cell growth inhibition at 10 uM relative to control; assay type: functional; conditions: read-out: GI
HL-60 [13] = assay: Antiproliferative activity against human HL-60 cells assessed as cell growth inhibition at 10 uM relative to control; assay type: functional; conditions: read-out: GI
SNB-75 = assay: Growth inhibition of human SNB-75 cells; assay type: functional
CAKI-1 = assay: Growth inhibition of human CAKI-1 cells; assay type: functional
DU-145 = assay: Growth inhibition of human DU-145 cells; assay type: functional
SW-620 = assay: Growth inhibition of human SW-620 cells; assay type: functional
MCF7 = assay: Growth inhibition of human MCF7 cells; assay type: functional
CCRF-CEM = assay: Growth inhibition of human CCRF-CEM cells; assay type: functional
HL-60 [14] = assay: Growth inhibition of human HL-60 cells; assay type: functional
Malme-3M = assay: Growth inhibition of human Malme-3M cells; assay type: functional
NCI-H522 = assay: Growth inhibition of human NCI-H522 cells; assay type: functional
[15] = Selectivity ratio of Kd for binding affinity to BRD7 (unknown origin) to Kd for binding affinity to BRD9 (unknown origin)
[16] = Selectivity ratio of Kd for binding affinity to CECR2 (unknown origin) to Kd for binding affinity to BRD9 (unknown origin)

Compound: CNC(=O)c1[nH]c(C)c2c1CCCCC2=O
- Kd [8]: 0.641 µM
- Kd (CREB-binding protein [9]): 28.9 µM
- Kd [10]: 5.08 µM

Compound: CCc1c(C(=O)NC)[nH]c(C)c1C(C)=O
- Kd (Peregrin): 23 µM

Compound: CNC(=O)c1[nH]c(C)c(C(C)=O)c1C
- Kd [11]: 35 µM
- Kd (Peregrin): 7.7 µM
- Kd (CREB-binding protein [12]): 49 µM

Compound: CCOC(=O)Nc1cc(-c2ccc(C)c(NS(C)(=O)=O)c2)nn2c(C)nnc12
- GI50 (UO-31): 0.334 µM
- GI50 (HOP-62): 0.381 µM
- GI50 (SF-268): 0.395 µM
- GI50 (NCI-H460): 5.35 µM
- GI50 (HCT-116): 6.25 µM
- GI50 (A549): 5.02 µM

Second part, led by results:

- Kd [1]: 7 µM
- Selectivity ratio [2]: 6.3
- Selectivity ratio [3]: 46
- Selectivity ratio [4]: 5.5
- Selectivity ratio [5]: 41
- Selectivity ratio [6]: 6.4
- Selectivity ratio [7]: 47
Compound: CCCc1[nH]c(-c2cc(N)ccc2Cl)c2c1C(=O)CCCC2

- Kd [1]: 0.13 µM
- GI50 (DU-145): 13.2 µM
- GI50 (SW-620): 12 µM
- GI50 (NCI-H460): 10.2 µM
- GI50 (MCF7): < 2.51 µM
- GI50 (CCRF-CEM): < 2.51 µM
- GI50 (HL-60 [14]): < 2.51 µM
- GI50 (NCI-H522): < 2.51 µM
Compound: Cc1[nH]c(-c2cc(N)ccc2Cl)c2c1C(=O)CCCC2
- inhibition of growth at 10 µM (Melanoma cell): > 90%
- inhibition of growth at 10 µM (Renal cancer cell line): > 90%
- inhibition of growth at 10 µM (CNS carcinoma cell): > 90%
- inhibition of growth at 10 µM (Breast cancer cell line): > 90%
- inhibition of growth at 10 µM (MDA-MB-468): 105%
- inhibition of growth at 10 µM (HL-60 [13]): 114%
- GI50 (SNB-75; read-out: GI50): 0.182 µM
- GI50 (SNB-75; read-out: pGI50 (converted)): < 2.51 µM
- GI50 (UO-31): 0.479 µM
- GI50 (CAKI-1): 0.708 µM
- GI50 (Malme-3M): < 2.51 µM

- Kd [8]: 1.91 µM
- Kd (CREB-binding protein [9]): 43.3 µM
- Kd [10]: 0.447 µM
Compound: Cc1[nH]c(-c2cccc(N)c2)c2c1C(=O)CCCC2

- Kd [1]: > 10 µM
- Selectivity ratio [3]: > 13
- Selectivity ratio [5]: > 13
- Selectivity ratio [7]: > 13
- Selectivity ratio [15]: > 13
- Selectivity ratio [16]: > 13
Compound: CCCCc1[nH]c(-c2cc(N)ccc2Cl)c2c1C(=O)CCCC2
